Laboratory results as given in PMC5053523, “In Vitro Antibacterial Activity of Rhodanine Derivatives against Pathogenic Clinical Isolates” (PLoS ONE, 2016).
In brackets after ≈: the same amount, converted by molar mass. Like-named read-outs stand apart in the source and are kept apart here.

Columns and labels:
[1] = tested on: Candida albicans; experiment: MIC against Candida albicans; assay type: cell-based; details: table prints none, read-out: MIC
[2] = tested on: Escherichia coli O157:H7; experiment: MIC with/without PMBN, Escherichia coli O157:H7; assay type: cell-based
Outline: (§1)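 MIC of rhodanines and control antibiotics measured against Gram-negative bacteria in the presence of a sub-inhibitory concentration of colistin or polymixin B nonapeptide (PMBN). Activity was also tested against E. coli SM1411ΔacrAB, which lacks the AcrAB multidrug efflux pump.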

[3] = tested on: Vancomycin Resistant Staphylococcus aureus (VRSA); experiment: Broth microdilution MIC/MBC, VRSA; assay type: cell-based; details: for MBC / MIC: VRSA
[4] = tested on: Acinetobacter baumannii; experiment: MIC with/without sub-MIC colistin, Acinetobacter baumannii; assay type: cell-based
Outline: as §1

[5] = tested on: B. cereus; experiment: Broth microdilution MIC/MBC, B. cereus; assay type: cell-based; details: Bacillus cereus; for MBC: read-out: MBC; for MIC: read-out: MIC
Description: The broth microdilution technique was used, followed by subculturing on agar plates that were rhodanine—free.

[6] = tested on: Klebsiella pneumoniae; experiment: MIC with/without sub-MIC colistin, Klebsiella pneumoniae; assay type: cell-based
Outline: as §1

[7] = tested on: Clostridium difficile; experiment: MIC against Clostridium difficile, anaerobic broth dilution; assay type: cell-based; details: Clostridioides difficile
Outline: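 Clinical C. difficile isolates grown anaerobically 48 h at 37 °C, suspended to 0.5 McFarland and diluted 1:300 in pre-reduced supplemented Brain Heart Infusion broth. Compounds serially diluted; plates incubated anaerobically at 37 °C for 48 h. MIC = lowest concentration with no visible growth.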

[8] = tested on: Escherichia coli O157:H7; experiment: MIC with/without sub-MIC colistin, Escherichia coli O157:H7; assay type: cell-based
Outline: as §1

[9] = tested on: Bacillus Strains; experiment: Broth microdilution MIC50/MIC90 and MIC range, Bacillus strains panel; assay type: cell-based, Bacillus spp.; details: 10 Bacillus strains
Description: The broth microdilution technique was used, followed by subculturing on agar plates that were rhodanine—free. […] The MICs reported represent the lowest concentration of each compound necessary to inhibit bacterial growth and the MBCs represent the lowest concentration required to reduce the initial bacterial inoculum by ≥ 99.9%.

[10] = tested on: Escherichia coli Δ acrAB; experiment: MIC against E. coli 1411 and AcrAB efflux pump deficient E. coli SM1411Δ acrAB; assay type: cell-based
Outline: as §1

[11] = tested on: B. licheniformis; experiment: Broth microdilution MIC/MBC, B. licheniformis; assay type: cell-based; details: Bacillus licheniformis; for MBC: read-out: MBC; for MIC: read-out: MIC
[12] = tested on: vancomycin resistant enterococci (VRE) E. faecium; experiment: Broth microdilution MIC/MBC, VRE E. faecium; assay type: cell-based; details: for MIC: read-out: MIC
[13] = tested on: Mycobacterium smegmatis; experiment: Broth microdilution MIC/MBC, Mycobacterium smegmatis; assay type: cell-based; details: Mycolicibacterium smegmatis, ATCC14468, M. Smegmatis ATCC 14468
[14] = NRS201, B. cereus NRS 201 NR-2488
[15] = NCIB9375, B. licheniformis Gibson 46 (NCIB 9375) NR-2494
[16] = NRS712, B. licheniformis NRS 712 NR-2499
[17] = E. faecium HM 968 Strain ERV102
[18] = E. faecium NR31914 Strain E0120
[19] = E. faecium Patient #1–1 NR-31903

O=C(O)[C@H](Cc1ccccc1)N1C(=O)/C(=C/c2cccc(OC/C=C/c3ccc(Cl)c(Cl)c3)c2)SC1=S [Rh 6]
MIC ([1]; ATCC10231, C. albicans ATCC 10231, unit from abstract): > 64 µM | MIC ([1]; C. albicans NR 29434, unit from abstract): > 64 µM | MIC ([1]; C. albicans NR 29435, unit from abstract): > 64 µM | MIC ([1]; C. albicans NR29437, unit from abstract): > 64 µM | MIC ([1]; C. albicans NR29438, unit from abstract): > 64 µM | MIC ([1]; C. albicans NR 29446, unit from abstract): > 64 µM | MIC ([1]; C. albicans NR 29448, unit from abstract): > 64 µM | MIC ([1]; C. albicans NR 29449, unit from abstract): > 64 µM | MIC ([1]; C. albicans NR 29453, unit from abstract): > 64 µM | MIC ([1]; C. albicans NR 294436, unit from abstract): > 64 µM | MIC ([2]; Escherichia coli O157:H7 ATCC 35150, PMBN (+) 4 μg/mL, read-out: MIC): 8 µM (≈ 4.56 µg/mL) | MIC ([2]; Escherichia coli O157:H7 ATCC 700728, PMBN (+) 4 μg/mL, read-out: MIC): >64 µM | MIC ([2]; Escherichia coli, ATCC35150): > 256 µM | MIC ([2]; Escherichia coli, ATCC700728): > 128 µM | MIC50 ([3]; 15 VRSA strains, read-out: MIC 50): 4 µM (≈ 2.28 µg/mL) | MIC90 ([3]; 15 VRSA strains, read-out: MIC 90): 8 µM (≈ 4.56 µg/mL) | MBC ([3]; VRSA 1, read-out: MBC): > 64 µM | MIC ([3]; VRSA 1, read-out: MIC): 8 µM (≈ 4.56 µg/mL) | MBC ([3]; VRSA 2, read-out: MBC): 8 µM (≈ 4.56 µg/mL) | MIC ([3]; VRSA 2, read-out: MIC): 8 µM (≈ 4.56 µg/mL) | MBC ([3]; VRSA 3a, read-out: MBC): 8 µM (≈ 4.56 µg/mL) | MIC ([3]; VRSA 3a, read-out: MIC): 8 µM (≈ 4.56 µg/mL) | MBC ([3]; VRSA 3b, read-out: MBC): 16 µM (≈ 9.13 µg/mL) | MIC ([3]; VRSA 3b, read-out: MIC): 8 µM (≈ 4.56 µg/mL) | MBC ([3]; VRSA 4, read-out: MBC): 8 µM (≈ 4.56 µg/mL) | MIC ([3]; VRSA 4, read-out: MIC): 4 µM (≈ 2.28 µg/mL) | MBC ([3]; VRSA 5, read-out: MBC): 16 µM (≈ 9.13 µg/mL) | MIC ([3]; VRSA 5, read-out: MIC): 4 µM (≈ 2.28 µg/mL) | MBC ([3]; VRSA 6, read-out: MBC): 32 µM (≈ 18.3 µg/mL) | MIC ([3]; VRSA 6, read-out: MIC): 4 µM (≈ 2.28 µg/mL) | MBC ([3]; VRSA 7, read-out: MBC): 8 µM (≈ 4.56 µg/mL) | MIC ([3]; VRSA 7, read-out: MIC): 8 µM (≈ 4.56 µg/mL) | MBC ([3]; VRSA 8, read-out: MBC): 16 µM (≈ 9.13 µg/mL) | MIC ([3]; VRSA 8, read-out: MIC): 4 µM (≈ 2.28 µg/mL) | MBC ([3]; VRSA 9, read-out: MBC): 16 µM (≈ 9.13 µg/mL) | MIC ([3]; VRSA 9, read-out: MIC): 8 µM (≈ 4.56 µg/mL) | MBC ([3]; VRSA 10, read-out: MBC): 16 µM (≈ 9.13 µg/mL) | MIC ([3]; VRSA 10, read-out: MIC): 4 µM (≈ 2.28 µg/mL) | MBC ([3]; VRSA 11a, read-out: MBC): 64 µM (≈ 36.5 µg/mL) | MIC ([3]; VRSA 11a, read-out: MIC): 4 µM (≈ 2.28 µg/mL) | MBC ([3]; VRSA 11b, read-out: MBC): 32 µM (≈ 18.3 µg/mL) | MIC ([3]; VRSA 11b, read-out: MIC): 4 µM (≈ 2.28 µg/mL) | MBC ([3]; VRSA 12, read-out: MBC): 32 µM (≈ 18.3 µg/mL) | MIC ([3]; VRSA 12, read-out: MIC): 4 µM (≈ 2.28 µg/mL) | MBC ([3]; VRSA 13, read-out: MBC): 32 µM (≈ 18.3 µg/mL) | MIC ([3]; VRSA 13, read-out: MIC): 8 µM (≈ 4.56 µg/mL) | MIC ([4]; Acinetobacter baumannii ATCC BAA747, colistin (+) […], read-out: MIC): >64 µM | MIC ([4]; Acinetobacter baumannii ATCC BAA19606, colistin (+) […], read-out: MIC): >64 µM | MIC ([4]; Acinetobacter baumannii, ATCCBAA747): > 128 µM | MIC ([4]; Acinetobacter baumannii, ATCCBAA19606): > 128 µM | MBC ([5]; B. cereus BAG1O-2 NR-28582): 4 µM (≈ 2.28 µg/mL) | MIC ([5]; B. cereus BAG1O-2 NR-28582): 4 µM (≈ 2.28 µg/mL) | MBC ([5]; B. cereus BAG1X1-1 NR-28575): 4 µM (≈ 2.28 µg/mL) | MIC ([5]; B. cereus BAG1X1-1 NR-28575): 4 µM (≈ 2.28 µg/mL) | MBC ([5]; B. cereus BAG1X2-1 NR-28578): 4 µM (≈ 2.28 µg/mL) | MIC ([5]; B. cereus BAG1X2-1 NR-28578): 4 µM (≈ 2.28 µg/mL) | MBC ([5]; B. cereus G9241 NR-9564): 4 µM (≈ 2.28 µg/mL) | MIC ([5]; B. cereus G9241 NR-9564): 4 µM (≈ 2.28 µg/mL) | MBC ([5]; B. cereus VD014 NR-22141): 4 µM (≈ 2.28 µg/mL) | MIC ([5]; B. cereus VD014 NR-22141): 4 µM (≈ 2.28 µg/mL) | MBC ([5]; B. cereus VD115 NR-22148): 4 µM (≈ 2.28 µg/mL) | MIC ([5]; B. cereus VD115 NR-22148): 4 µM (≈ 2.28 µg/mL) | MBC ([5]; B. cereus VD148 NR-22150): 4 µM (≈ 2.28 µg/mL) | MIC ([5]; B. cereus VD148 NR-22150): 4 µM (≈ 2.28 µg/mL) | MBC [5, 14]: 4 µM (≈ 2.28 µg/mL) | MIC [5, 14]: 4 µM (≈ 2.28 µg/mL) | MIC ([6]; Klebsiella pneumoniae ATCC BAA 2146, colistin (+) […]): >64 µM | MIC ([6]; Klebsiella pneumoniae, BAA2146): > 128 µM | MIC ([7]; C. difficile HM-88): 4 µM (≈ 2.28 µg/mL) | MIC ([7]; C. difficile HM-745): 4 µM (≈ 2.28 µg/mL) | MIC ([7]; C. difficile HM-746): 2 µM (≈ 1.14 µg/mL) | MIC ([7]; C. difficile Isolate-1 NR-13427): 4 µM (≈ 2.28 µg/mL) | MIC ([7]; C. difficile Toxigenic Strain P8 NR-32888): 8 µM (≈ 4.56 µg/mL) | MIC ([8]; Escherichia coli O157:H7 ATCC 35150, colistin (+) […], read-out: MIC): >64 µM | MIC ([8]; Escherichia coli O157:H7 ATCC 700728, colistin (+) […], read-out: MIC): >64 µM | MIC ([8]; Escherichia coli, ATCC35150): > 128 µM | MIC ([8]; Escherichia coli, ATCC700728): > 128 µM | MIC50 [9]: 4 µM (≈ 2.28 µg/mL) | MIC90 [9]: 4 µM (≈ 2.28 µg/mL) | MIC ([10]; E.coli 1411): > 64 µM | MIC ([10]; E.coli 1411 SM (Δ acrAB, AcrAB efflux pump deficient)): > 64 µM | MBC [11, 15]: 4 µM (≈ 2.28 µg/mL) | MIC [11, 15]: 4 µM (≈ 2.28 µg/mL) | MBC [11, 16]: 4 µM (≈ 2.28 µg/mL) | MIC [11, 16]: 4 µM (≈ 2.28 µg/mL) | MBC ([12]; E. faecium E417 HM-965): > 64 µM | MIC ([12]; E. faecium E417 HM-965): 4 µM (≈ 2.28 µg/mL) | MBC ([12]; E. faecium E1071 NR-28978): > 64 µM | MIC ([12]; E. faecium E1071 NR-28978): 8 µM (≈ 4.56 µg/mL) | MBC [12, 17]: > 64 µM | MIC [12, 17]: 8 µM (≈ 4.56 µg/mL) | MBC [12, 18]: 64 µM (≈ 36.5 µg/mL) | MIC [12, 18]: 8 µM (≈ 4.56 µg/mL) | MBC [12, 19]: > 64 µM | MIC [12, 19]: 4 µM (≈ 2.28 µg/mL) | MBC ([13]; read-out: MBC): 32 µM (≈ 18.3 µg/mL) | MIC ([13]; read-out: MIC): 16 µM (≈ 9.13 µg/mL)
